Reference: EP2397458A1, “Organic salts and co-crystals of phenylbutyric acid” (Lunamed AG, priority 2010, dated 2011)
Counter-ions that a name gives are not always drawn.

Tests used:
[1] = Aqueous solubility determination (saturated solution, HPLC; pH of saturated solution); assay type: physicochemical; details: for solubility at 24 h: doubly distilled water, after 24 h of equilibration at 25°C; for pH of the corresponding saturated solution: saturated aqueous solution after 24 h at 25°C
Method: (§1) For this measurement approximately 1.0 mL of doubly distilled water was added to 18 mg of the substance according Example 1 to be measured. The resulting suspension was equilibrated in a temperature-controlled Eppendorf Thermomixer Comfort shaker for 24 h at 25°C at a shaking rate of 600 rpm. The solid phase was recovered by filter centrifugation (0.10-µm PVDF membrane) and examined by FT-Raman spectroscopy. Concentrations in the filtrate (i.e., saturated solutions) were determined by HPLC (see below). The pH of the saturated solution was determined with a Metrohm 713 pH meter. HPLC: TSP instrument with P4000 pump, AS3000 autosampler, SCM1000 degasser, UV3000 detector, and PC1000 Vers. 4.1 software. Table 4: HPLC method used for solubility determinations.
as §1, with “8:” for “4:”

[2] = DVS / hygroscopy measurement; assay type: physicochemical; details: for hygroscopy: DVS humidity program 50 → 95 → 0 → 50% r.h.
Method: For the measurement of hygroscopy of the salt a Projekt Messtechnik Sorptions Prüfsystem SPS 11 - 100n was used. (Hygroscopy of the phenylbutyric acid for comparison was measured with the Surface Measurement Systems DVS-1 ). The salt sample was placed on an aluminium (SPS 11) holder (for phenylbutyric acid on a platinum holder (DVS-1)) on top of a microbalance and allowed to equilibrate for 2 h at 50% r.h. before starting the pre-defined humidity program: • (1)2hat50%r.h. • (2) 50 → 95% r.h. (5%/h); 5 h at 95% r.h. • (3) 95 → 0% r.h. (5%/h); 5 h at 0% r.h. • (4) 0 → 50% r.h. (5%/h); 2 h at 50% r.h.
For the measurement of hygroscopy of the salt a Projekt Messtechnik Sorptions Prüfsystem SPS 11 - 100n was used. (Hygroscopy of the phenylbutyric acid for comparison was measured with the Surface Measurement Systems DVS-1). The salt sample was placed on an aluminium (SPS 11) holder (for phenylbutyric acid on a platinum holder (DVS-1)) on top of a microbalance and allowed to equilibrate for 2 h at 50% r.h. before starting the pre-defined humidity program: • (1)2hat50%r.h. • (2) 50 → 95% r.h. (5%/h); 5 h at 95% r.h. • (3) 95 → 0% r.h. (5%/h); 5 h at 0% r.h. • (4) 0 → 50% r.h. (5%/h); 2 h at 50% r.h. […] However, raising the relative humidity further from 80 to 95% r.h. results in a steep gain of -10 wt.-%. Upon lowering the relative humidity, the mass decreases only slightly (by -2.2 w1.-%) until a relative humidity of -60 % r.h. is reached. Then a steep loss of -10 wt.-% occurs until the mass of the starting material is reached at -45% r.h. […] Upon lowering the relative humidity from 50 to 0% r.h. a mass loss of -0.3 wt.-% is observed, but it is fully reversible. At the end of the cycle the sample had essentially the same mass as the starting material. […] A sesquihydrate of the hemi-benzathine salt (1 :0.5:1.5 phenylbutyrate:benzathine:H2O) has a theoretical water content of 9.5 wt.-%. A reversible hydrate formation occurred during the DVS experiment.

Row | Structure (SMILES) | solubility at 24 h ([1]; value corresponds to a hydrate of the benzathine salt, not to the anhydrous form) [µg/mL] | pH of the corresponding saturated solution ([1]; hydrate formed and precipitated during equilibration) | gradual mass gain ([2]; DVS, increasing the relative humidity from 50 to 80% r.h.) [wt.-%] | mass loss ([2]; DVS, lowering the relative humidity from 50 to 0% r.h., fully reversible) [wt.-%] | mass decrease ([2]; DVS, lowering the relative humidity from 95% until -60 % r.h. is reached) [w1.-%] | steep loss (mass) ([2]; DVS, lowering the relative humidity from -60 % r.h. until -45% r.h. (mass of starting material reached)) [wt.-%] | steep gain (mass) ([2]; DVS, raising the relative humidity from 80 to 95% r.h.) [wt.-%] | pH of the corresponding saturated solution [1] | solubility at 24 h ([1]; water, solid residue Raman spectrum unchanged) [µg/mL] | hygroscopy [2] | hygroscopy ([2]; listed as 4-Phenylbutyrate-Mono-Benethamine salt)
1 | O=C(O)CCCc1ccccc1 [Example 2, 4-Phenylbutyrate-Hemi-Benzathine salt] | 1700 | 6.2 | -1.3 | -0.3 | -2.2 | -10 | -10 | – | – | – | –
2 | O=C(O)CCCc1ccccc1 [Example 1, 4-Phenylbutyrate-Mono-Benethamine salt] | – | – | – | – | – | – | – | 7.2 | 1900 | not hygroscopic | non-hygroscopic
